Data taken from patent US11168072B2, “Crystal form of morpholino quinazoline compound, preparation method therefor and use thereof” (SHANGHAI YINGLI PHARMACEUTICAL CO., LTD, priority 2018, dated 2021).
Entries after “also recorded” stand apart in the source; their conditions may differ.

Key:
Type in all cases: physicochemical
[1] = Stability under high temperature, high humidity, illumination (influencing factors); details: for stability under illumination conditions (conclusion): illumination 4500±500 Lux; for changes in the appearance: illumination, high temperature (60° C.) and high humidity (25° C., RH75%) for 10 days
Description: Appropriate amount of the samples of the crystal form I of the morpholino quinazoline compound represented by formula A were placed on culture dishes which were then left open under high temperature (40±2° C. and 60±2° C.), high humidity (25° C., RH75±5% and RH90±5%) and illumination (4500±500 Lux, 25° C.) conditions, respectively.
Appropriate amount of the samples of the amorphous form of the morpholino quinazoline compound represented by formula A and the samples of the crystal form II of the morpholino quinazoline compound represented by formula A were placed on culture dishes respectively, which were then left open under high temperature (60±2° C.), high humidity (25° C., RH75±5%) and illumination (4500±500 Lux, 25° C.) conditions, respectively.

[2] = Dynamic vapor sorption analysis (DVS); details: for increase by mass compared to the initial mass (DVS weight gain): relative humidity from 0% to 95%
Description: (§1) Dynamic vapor sorption analysis (DVS): about 10 mg of the sample was taken and dried for 60 minutes under a temperature set at 25° C. and a humidity of 0% RH, and then the moisture sorption characteristics of the sample when the humidity changed from 0% RH to 95% RH was tested, and the moisture desorption characteristics of the sample when the humidity changed from 95% RH to 0% RH was tested; the humidity change step was 5% RH; the value of the mass change rate dm/dt less than 0.002% was considered as balance equilibrium, the rate of mass change within 5 minutes less than 0.01%/minute was considered as the equilibrium standard in the testing process, and the maximum equilibrium time was 2 hours. The isothermal water adsorption/desorption characteristics under this test condition were determined and XRPD detection was performed on the samples after the DVS test.
as §1, with “About” for “Dynamic vapor sorption analysis (DVS): about”

[3] = Stability of crystal form in water and organic solvents at room temperature for 10 days (suspension, XRPD)
Description: About 20 mg of solid samples of the crystal form I of the morpholino quinazoline compound represented by formula A were weighed respectively and placed into vials, 1 mL of water or organic solvent was added to the vials respectively, and sonicated for 5 min to obtain suspensions. The suspensions were spun at room temperature for 10 days and the filtered wet samples were characterized by XRPD.

[4] = Stability in organic solvents with slurrying at high temperature for 18 hours (XRPD); details: slurried in ethanol, isopropanol and n-heptane at 80° C. for 18 hours
Description: To 5 g of the crystal form I of the morpholino quinazoline compound represented by formula A was added 10 g of ethanol, 10 g of isopropanol, and 10 g of n-heptane. The mixture was slurried at 80° C. for 18 hours, cooled to room temperature, filtered, and dried under vacuum at less than 85° C. for 16 hours to obtain about 4 g of sample.

[5] = high temperature (60° C.) and high humidity (25° C., RH75%)
[6] = illumination 4500 Lux ± 500 Lux, 25° C., 5 days
[7] = illumination 4500 Lux ± 500 Lux, 25° C., 10 days
[8] = illumination (4500±500 Lux, 25° C.)
[9] = illumination 4500 Lux ± 500 Lux, 25° C., 1 month

COc1ncc(-c2nc(N3CCOCC3)nc3c(CN4CCC(C(C)(C)O)CC4)cc(F)cc23)cc1NS(C)(=O)=O [Amorphous form]
Content (%) ([1]; 0 day): 98.60%
Total impurities (%) ([1]; 0 day): 1.32%
Total impurities (%) ([1]; 25° C., RH 75 ± 5%, 5 days): 1.37%
Total impurities (%) ([1]; 25° C., RH 75 ± 5%, 10 days): 1.31%
Content (%) ([1]; 60° C., 5 days): 98.43%
Content (%) ([1]; 60° C., 10 days): 98.48%
Total impurities (%) ([1]; 60 ± 2° C., 5 days): 1.54%
Total impurities (%) ([1]; 60 ± 2° C., 10 days): 1.46%
Content (%) ([1]; 75% RH (25° C.), 5 days): 98.51%
Content (%) ([1]; 75% RH (25° C.), 10 days): 98.62%
change of total impurities content [1, 5]: increases slightly
Content (%) [1, 6]: 98.29%
Total impurities (%) [1, 6]: 1.68%
Content (%) [1, 7]: 97.80%
Total impurities (%) [1, 7]: 2.16%
stability under illumination conditions (conclusion) ([1]; 25° C.): unstable
change of total impurities content [1, 8]: increases significantly
changes in the appearance [1]: no significant changes

COc1ncc(-c2nc(N3CCOCC3)nc3c(CN4CCC(C(C)(C)O)CC4)cc(F)cc23)cc1NS(C)(=O)=O [Crystal form II]
Content (%) ([1]; 0 day): 96.65%
Total impurities (%) ([1]; 0 day): 3.28%
Total impurities (%) ([1]; 25° C., RH 75 ± 5%, 5 days): 3.18%
Total impurities (%) ([1]; 25° C., RH 75 ± 5%, 10 days): 3.61%
Content (%) ([1]; 60° C., 5 days): 95.85%
Content (%) ([1]; 60° C., 10 days): 97.0%
Total impurities (%) ([1]; 60 ± 2° C., 5 days): 4.04%
Total impurities (%) ([1]; 60 ± 2° C., 10 days): 2.97%
Content (%) ([1]; 75% RH (25° C.), 5 days): 96.75%
Content (%) ([1]; 75% RH (25° C.), 10 days): 96.24%
change of total impurities content [1, 5]: increases slightly
Content (%) [1, 6]: 96.26%
Total impurities (%) [1, 6]: 3.64%
Content (%) [1, 7]: 95.80%
Total impurities (%) [1, 7]: 4.14%
stability under illumination conditions (conclusion) ([1]; 25° C.): unstable
change of total impurities content [1, 8]: increases significantly
changes in the appearance [1]: no significant changes
increase by mass compared to the initial mass (DVS weight gain) ([2]; 25° C.): 6.237%
increase by mass compared to the initial mass (DVS weight gain) ([2]; 25° C., listed as crystal type II): 6.237%
weight gain of crystal form II relative to that of crystal form I ([2]; relative humidity from 0 to 95%): 18 times

COc1ncc(-c2nc(N3CCOCC3)nc3c(CN4CCC(C(C)(C)O)CC4)cc(F)cc23)cc1NS(C)(=O)=O [Crystal form I]
stability under high temperature, high humidity and illumination conditions (conclusion) [1]: good stability
Moisture (%) ([1]; 0 day): 0.07%
Total impurities (%) ([1]; 0 day): 0.1%
Moisture (%) ([1]; 25° C., RH 75 ± 5%, 1 month): 0.1%
Total impurities (%) ([1]; 25° C., RH 75 ± 5%, 1 month): 0.1%
Moisture (%) ([1]; 25° C., RH 75 ± 5%, 5 days): 0.1%
Total impurities (%) ([1]; 25° C., RH 75 ± 5%, 5 days): 0.1%
Moisture (%) ([1]; 25° C., RH 75 ± 5%, 10 days): 0.2%
Total impurities (%) ([1]; 25° C., RH 75 ± 5%, 10 days): 0.1%
Moisture (%) ([1]; 25° C., RH 90 ± 5%, 1 month): 0.1%
Total impurities (%) ([1]; 25° C., RH 90 ± 5%, 1 month): 0.1%
Moisture (%) ([1]; 25° C., RH 90 ± 5%, 5 days): 0.2%
Total impurities (%) ([1]; 25° C., RH 90 ± 5%, 5 days): 0.1%
Moisture (%) ([1]; 25° C., RH 90 ± 5%, 10 days): 0.2%
Total impurities (%) ([1]; 25° C., RH 90 ± 5%, 10 days): 0.1%
Moisture (%) ([1]; 40 ± 2° C., 1 month): 0.1%
Total impurities (%) ([1]; 40 ± 2° C., 1 month): 0.1%
Moisture (%) ([1]; 40 ± 2° C., 5 days): 0.1%
Total impurities (%) ([1]; 40 ± 2° C., 5 days): 0.1%
Moisture (%) ([1]; 40 ± 2° C., 10 days): 0.2%
Total impurities (%) ([1]; 40 ± 2° C., 10 days): 0.1%
Moisture (%) ([1]; 60 ± 2° C., 1 month): 0.1%
Total impurities (%) ([1]; 60 ± 2° C., 1 month): 0.1%
Moisture (%) ([1]; 60 ± 2° C., 5 days): 0.2%
Total impurities (%) ([1]; 60 ± 2° C., 5 days): 0.1%
Moisture (%) ([1]; 60 ± 2° C., 10 days): 0.2%
Total impurities (%) ([1]; 60 ± 2° C., 10 days): 0.1%
Moisture (%) [1, 9]: 0.1%
Total impurities (%) [1, 9]: 0.2%
Moisture (%) [1, 6]: 0.1%
Total impurities (%) [1, 6]: 0.1%
Moisture (%) [1, 7]: 0.1%
Total impurities (%) [1, 7]: 0.1%
hygroscopicity (conclusion) [2]: less hygroscopicity; also recorded: very low hygroscopicity
increase by mass compared to the initial mass (DVS weight gain) ([2]; 25° C.): 0.34%
increase by mass compared to the initial mass (DVS) ([2]; relative humidity from 0 to 90%, 25° C.): 0.23%
stability in water and organic solvents (conclusion) ([3]; room temperature and high temperature): good stability
crystal form of filtered wet sample by XRPD ([3]; suspension in water or organic solvents, room temperature, 10 days): did not change
X-ray powder diffraction pattern versus crystal form I of Example 1 [4]: consistent
